Test results reported in US20260274886A1, “CRYSTALLINE FORMS OF A FARNESOID X RECEPTOR AGONIST” (ALFASIGMA S.P.A., priority 2023, published 2026).
Read-outs that look alike come from different tables or passages of the source.

What was measured:
[1] = Form change on drying under vacuum (XRPD wet vs dry, thermal cycling experiments); type: physicochemical; details: dried at ambient temperature under vacuum for 2 h
Method: Additional solvent is added if necessary. Mixture is thermally cycled between 4° and 5° C. with 0.1° C./min cooling and heating rates and 1 h holds at 40 and 5° C. After 21 h cycling, additional solvent is added if thick slurry is observed and anti-solvent (heptane) is added if clear solution is observed. After a further 26 h thermal cycling, observations are recorded at 5° C. Material is isolated by centrifugation if necessary and analyzed by XRPD. […] XRPD analysis is repeated.

[2] = Dynamic vapour sorption (DVS) analysis; type: physicochemical
Method: Approximately 10-20 mg of sample is placed into a mesh vapour sorption balance pan and loaded into a DVS Advantage dynamic vapour sorption balance by Surface Measurement Systems. The sample is subjected to a ramping profile from 40-90% relative humidity (RH) at 10% increments, maintaining the sample at each step until a stable weight has been achieved (dm/dt 0.004%, minimum step length 30 minutes, maximum step length 500 minutes) at 25° C. After completion of the sorption cycle, the sample is dried using the same procedure to 0% RH and then a second sorption cycle back to 40% RH. Two cycles are performed. The weight change during the sorption/desorption cycles are plotted, allowing for the hygroscopic nature of the sample to be determined. XRPD analysis is then carried out on any solid retained.
A dynamic vapour sorption analysis of Crystalline Form 1 is in FIG. 4. […] There is a loss of 1.9 wt. % on the first desorption cycle. There is an uptake of 1.1 wt. % (0.3 equivalents water) on the second sorption between 0 and 90% RH, followed by a loss of about 1.25 wt. % on desportion. There is a loss of 1.2 wt. % difference from the input to the end of the experiment. […] Crystalline Form 1 remains as the bulk form.

[3] = DVS, 25° C., between 0 and 90% RH

SMILES	form after drying [1]	uptake on the second sorption [2, 3]	uptake on the second sorption, equivalents water [2, 3]	loss on the first desorption cycle ([2]; DVS, 25° C., first desorption cycle)	mass change on the first sorption cycle ([2]; DVS, 25° C., first sorption cycle)	loss on desorption after second sorption ([2]; DVS, 25° C., second desorption)	loss, difference from the input to the end of the experiment ([2]; DVS, 25° C., two cycles)	XRPD post-DVS ([2]; solid retained after DVS)	HPLC-CAD Purity (% w/w) (7 day stability, 40° C./75% RH)	HPLC-CAD Purity (% w/w) (7 day stability, 80° C.)	HPLC-CAD Purity (% w/w) (7 day stability, Ambient Light)	XRPD (7 day stability, Ambient Light)	stability under stressed conditions (summary statement referring to DVS and storage data in Example 6)
CC[C@H]1[C@@H](O)[C@@H]2[C@H]([C@@H](O)C[C@]3(C)[C@@H]([C@H](C)CCC(=O)O)CC[C@@H]23)[C@@]2(C)CC[C@@H](O)C[C@@H]12 [Crystalline Form 2, 3α,7α,11β-trihydroxy-6α-ethyl-5β-cholan-24-oic acid]	converts to Form 3												
CC[C@H]1[C@@H](O)[C@@H]2[C@H]([C@@H](O)C[C@]3(C)[C@@H]([C@H](C)CCC(=O)O)CC[C@@H]23)[C@@]2(C)CC[C@@H](O)C[C@@H]12 [Crystalline Form 1, 3α,7α,11β-trihydroxy-6α-ethyl-5β-cholan-24-oic acid]		1.1 wt. %	0.3 equivalents water	1.9 wt. %	initial mass loss on the first sorption cycle before a slight uptake is observed	about 1.25 wt. %	1.2 wt. %	slight loss of crystallinity	97.1 % w/w	96.4 % w/w	97.5 % w/w	1^	stable under stressed conditions
